Our source for the EC50 and viability values is US10179770B2, “Quinolines derivatives as novel anticancer agents” (GENOSCIENCE PHARMA, priority 2013, dated 2019).

Experiment [1] concerns B16F10. Description: CellTiter-Glo cell viability assay (example 57). The format is cell-based, human. Conditions: Mus musculus, B16-F10; B16F10 (Melanoma); Cell Titer-Glo; 72 h.
Experiment [2] deals with A375. Put plainly: Cell proliferation assay at 10 μM. The experiment is classed as cell-based, human. Conditions: Homo sapiens, A-375, 72 h, read-out: Cell viability observed at 10 μM. As to the method:
(§1) The human melanoma cell line A375 and colorectal carcinoma cell line HCT-116 were cultured in Dulbecco's modified Eagle's medium supplemented with 10% fetal bovine serum and 1% Penicillin-Streptomycin. The human leukemia cell line MOLM-14 was cultured in Minimum Essential Medium Alpha Medium supplemented with 10% Fetal Bovine Serum and 1% Penicillin-Streptomycin. All the cell lines were maintained at 37° C. with 5% CO2.
(§2) Briefly, adherent cells, A375 and HCT-116 cells were respectively plated at 800 or 5,000 cells per well onto 96-well plates in 90 μL of media per well and were allowed to grow overnight before the assay.
(§3) Compounds were added at different concentrations to each well, and cell cultures were incubated for 72 h. Vehicle (DMSO or H2O) was used as a control, and all compounds were tested in a constant percentage of vehicle. Cell outgrowth was measured using for adherent cells CellTiter […] Aqueous One Solution Cell Proliferation Assay (Promega) and for cell suspension, Sulforhodamine B colorimetric assay as described in Vichai et al. (Vichai, V. and Kirtikara, K. Nat. Protoc. 2006 (1) 1112-1116). Absorbance was measured using an Infinite F200 Pro or Sunrise TECAN plate reader.
(§4) In each experiment, each point represents the average of two replicates in cell culture.
(§5) Results are presented in Table 1 below for concentrations of 10 μM of tested compounds.

Experiment [3] relates to HCT-116. Put plainly: Cell proliferation assay at 10 μM. The format is cell-based. Conditions: Homo sapiens, HCT-116, 72 h, read-out: Cell viability observed at 10 μM. As to the method: as §1, §2, §3, §4, §5
Experiment [4] relates to MOLM-14. Put plainly: Cell proliferation assay at 10 μM. The format is cell-based, human. To be noted: Homo sapiens, MOLM-14, 72 h, read-out: Cell viability observed at 10 μM. As to the method: as §1
For MOLM-14 cell line, which grows in suspension, 30,000 cells were plated onto 96-well plates immediately before the assay.
as §3, §4, §5

For experiment [5], the system named is A-375. Description: EC50 determination in cancer cell lines. The experiment is classed as cell-based, human. To be noted: Homo sapiens, A-375, 72 h. The procedure:
as §3
(§6) The human melanoma cell line A375, colorectal carcinoma cell line HCT-116, hepatocellular carcinoma cell line HepG2 were cultured in Dulbecco's modified Eagle's medium supplemented with 10% fetal bovine serum and 1% Penicillin-Streptomycin. The human melanoma cell lines SK-MEL-28 and SK-MEL-5 were cultured in Minimum Essential Medium. The colorectal carcinoma cell lines HT-29 and Colo205 were respectively cultured in Mc Coy's and RPMI media. The human leukemia cell lines MV4-11 and KG-1 were cultured in Iscove's Modified Dulbecco's Media. The human leukemia cell line MOLM-14 was cultured in Minimum Essential Medium Alpha Medium supplemented with 10% Fetal Bovine Serum and 1% Penicillin-Streptomycin All culture media were supplemented with 10% fetal bovine serum and 1% Penicillin-Streptomycin except for MV4-11 cell line 20% fetal bovine serum and 1% Penicillin-Streptomycin. All the cell lines were maintained at 37° C. with 5% C02.
(§7) Briefly, adherent cells, A375, HCT-116, HepG2, SK-MEL-28, SK-MEL-5, HT-29 and Colo205 cells were respectively plated at 800, 5,000, 7,000, 2,500, 3,000-5,000, 5,000 or 5,000 cells per well onto 96-well plates in 90 μL of media per well and were allowed to grow overnight before the assay. For MV4-11 and KG-1 cells that grow in suspension, 40,000-60,000 cells were plated onto 96-well plates immediately before the assay. MOLM-14 cell line, that grow in suspension, 30,000 cells were plated onto 96-well plates immediately before the assay.
(§8) The cell growth measure was the same as described in example 51.
(§9) The experimental data are analyzed using a computer program, Graphpad Prism (GraphPad Software, Inc. La Jolla, Calif.) and EC50 values were determined as the dose of compound required to reduce absorbance values to 50% of the signal obtained for vehicle treated cell cultures and were a mean of at least two independent experiments except for EC50 values with (*) where […].

The test system of experiment [6] is HepG2. Put plainly: EC50 determination in cancer cell lines. The experiment is classed as cell-based, human. To be noted: Homo sapiens, HepG2, 72 h. The procedure:
as §3, §6, §7, §8, §9

Experiment [7] concerns HCT-116. Description: EC50 determination in cancer cell lines. The experiment is classed as cell-based, human. Conditions: Homo sapiens, HCT-116, 72 h. The procedure:
as §3, §6
Briefly, adherent cells, A375, HCT-116, HepG2, SK-MEL-28, SK-MEL-5, HT-29 and Colo205 cells were respectively plated at 800, 5,000, 7,000, 2,500, 3,000-5,000, 5,000 or 5,000 cells per well onto 96-well plates in 90 μL of media per well and were allowed to grow overnight before the assay. For MV4-11 and KG-1 cells that grow in suspension, 40,000-60,000 cells were plated onto 96-well plates immediately before the assay. MOLM-14 cell line, that grow in suspension, 30,000 cells were plated onto 96-well plates immediately before the assay. […]
as §9

The subject of experiment [8] is Colo205. Description: EC50 determination in cancer cell lines. The format is cell-based. To be noted: Homo sapiens, COLO 205, 72 h, * n>2. The procedure:
as §3, §6, §7, §8, §9

Experiment [9] deals with HT-29. Description: EC50 determination in cancer cell lines. The format is cell-based. To be noted: Homo sapiens, 72 h, * n>2. The procedure:
as §3, §6, §7, §8, §9

Experiment [10] concerns KG-1. Description: EC50 determination in cancer cell lines. The experiment is classed as cell-based. Conditions: Homo sapiens, 72 h. The procedure: as §3, §6, §7, §8, §9
Experiment [11] relates to MOLM-14. Put plainly: EC50 determination in cancer cell lines. The format is cell-based. Conditions: Homo sapiens, 72 h. The procedure: as §3, §6, §7, §8, §9
The subject of experiment [12] is MV4-11. Put plainly: EC50 determination in cancer cell lines. The experiment is classed as cell-based. Conditions: Homo sapiens, 72 h. As to the method:
as §3, §6, §7, §8, §9

The test system of experiment [13] is SK-MEL-28. Description: EC50 determination in cancer cell lines. To be noted: Homo sapiens, 72 h. The format is cell-based. As to the method: as §3, §6, §7, §8, §9
Experiment [14] deals with SK-MEL-5. Put plainly: EC50 determination in cancer cell lines. The experiment is classed as cell-based. Conditions: Homo sapiens, 72 h. As to the method:
as §3, §6, §7, §8, §9

Experiment [15] has as its system patient derived acute myeloid leukemia (AML) cell lines. Put plainly: Cell growth inhibition assay, patient derived AML cells. Conditions: 48 h. The format is cell-based, human. As to the method:
The patient derived acute myeloid leukemia (AML) cells were obtained after written informed consent under the Institut Paoli Calmette (IPC) institutional review board approval and under the strict compliance of the Helsinki declaration on medical research involving human subjects. […] Each compound was added at different concentrations (combinations of six concentrations) to each well, and cell cultures were incubated for 48 h. Vehicle (H2O) was used as a control, and all compounds were tested in a constant percentage of vehicle. Cell outgrowth was measured using the CellTiter-Glo luminescent cell viability assay as described by the manufacturer (Promega, Ref G7571 Madison, Wis., USA) using a Centro (Berthold, France) plate reader. In each experiment, each point represents the average of triplicates in cell culture. The experimental data are analyzed using a computer program, Graphpad Prism (GraphPad Software, Inc.

In experiment [16] the test system is PBMC Healthy voluntary donor. Description: Cell growth inhibition assay, PBMC of healthy donors. The experiment is classed as cell-based, human. As to the method: Each compound was added at different concentrations (combinations of six concentrations) to each well, and cell cultures were incubated for 48 h. Vehicle (H2O) was used as a control, and all compounds were tested in a constant percentage of vehicle. Cell outgrowth was measured using the CellTiter-Glo luminescent cell viability assay as described by the manufacturer (Promega, Ref G7571 Madison, Wis., USA) using a Centro (Berthold, France) plate reader. In each experiment, each point represents the average of triplicates in cell culture. The experimental data are analyzed using a computer program, Graphpad Prism (GraphPad Software, Inc.

Broadly, the EC50 is the midpoint of the concentration-response curve. Broadly, the viability is a read-out of living cells in per cent, often relative to untreated cells.

Counter-ions that a name gives are not always drawn. Bounds are passed on as bounds.

`COc1cccc2c1C(=O)c1c(O)c3c(c(O)c1C2=O)C[C@@](O)(C(=O)CO)C[C@@H]3O[C@H]1C[C@H](N)[C@H](O)[C@H](C)O1` [Doxorubicine, doxorubicin] gave an EC50 in [1] of 0.2 µM.
For `Clc1ccc2c(NC3CCN(Cc4ccccc4)CC3)cc(-c3ccccc3)nc2c1` [XXVIII-2, 7-chloro-2-phenyl-4-[(N-benzylpiperidin-4-yl)-amino]quinoline hydrochloride salt], the viability at 10 µM in experiment [2], in [3] and in experiment [4] was less than 20% in each case. Moreover, the 50% effective concentration (EC50) in experiment [5] amounted to 9 µM; in experiment [6] it was 26 µM; in [7], 12 µM; in experiment [8], 9 µM; in [9], 13 µM; in [10], 10 µM. Also, the EC50 was 10 µM in experiment [11], 5 µM in [12], 7 µM in experiment [13] and 9 µM in experiment [14].
Take `Clc1ccc2c(CNC3CCN(Cc4ccccc4)CC3)cc(-c3ccccc3)nc2c1` [XXXIII-2, 7-chloro-2-phenyl-4-[(N-benzyl-piperidin-4-yl)aminomethyl]quinoline hydrochloride salt]: the viability at 10 µM in experiment [2] lay within 40 to 60%; in experiment [3], 20 to 40%; in experiment [4] it was 40 to 60%. Also, the EC50 came to 9 µM in experiment [5]; 16 µM in experiment [6]; 13 µM in experiment [7]; 9 µM in experiment [8]; 14 µM in [9]; 8 µM in [10]. The EC50 in experiment [11] was found to be 9 µM; in experiment [12], 5 µM; in experiment [13] it was 6 µM; in [14], 6 µM.
As for `CC(C)(C)NC1CCN(c2cc(-c3ccc(Cl)c(Cl)c3)nc3ccccc23)CC1` [XIV-8, 2-(3,4-dichloro-phenyl)-4-(4-N-tert-butylamino-piperidin-1-yl)quinoline dihydrochloride], the viability at 10 µM in experiment [2], in experiment [3] and in experiment [4] was less than 20% throughout. Further, the EC50 in experiment [5] stood at 6 µM; in experiment [7], 5 µM; in [10] it was 4 µM; in experiment [11], 5 µM; in experiment [12], 4 µM; in [13], 4 µM. Also, the EC50 in experiment [14] is 6 µM; in experiment [15] (Homo sapiens, Patient 3, subtype Tri8), 8 µM; in experiment [15] (Homo sapiens, Patient 8, subtype FLT3−), 25 µM; in experiment [15] (Homo sapiens, Patient 9, subtype FLT3+), 40 µM; in experiment [15] (Homo sapiens, Patient 10, subtype Inv 3), 20 µM; in experiment [15] (Homo sapiens, Patient 12, subtype 5 & 7), more than 40 µM. The EC50 in experiment [15] (Homo sapiens, Patient 13, subtype MLL) was more than 40 µM; in experiment [15] (Homo sapiens, Patient 16, subtype Inv 3) it was 17 µM; in experiment [16] (Homo sapiens, PBMC, PBMC Healthy voluntary donor 1), 31 µM; in experiment [16] (Homo sapiens, PBMC, PBMC Healthy voluntary donor 2), 14 µM.
On to `Nc1ccn([C@@H]2O[C@H](CO)[C@@H](O)[C@@H]2O)c(=O)n1` [AraC, cytosine arabinoside, reference compound], for which the EC50 in experiment [15] (Patient 3, subtype Tri8) was 44 µM; in experiment [15] (Patient 8, subtype FLT3−), 51 µM; in [15] (Patient 9, subtype FLT3+), 21 µM; in experiment [15] (Patient 10, subtype Inv 3) it was 36 µM; in experiment [15] (Patient 12, subtype 5 & 7) it was more than 40 µM; in [15] (Patient 13, subtype MLL) it was 3 µM. In addition, the EC50 in experiment [15] (Patient 16, subtype Inv 3) is 11 µM; in [16] (PBMC Healthy voluntary donor 1), 13 µM.
